Earlier results, collected in patent publication US6620425B1, “Food supplements and methods comprising lipoic acid and creatine” (Muscletech Research and Development Inc., priority 1998, dated 2003).

Key:
[1] = insulin-sensitive individuals

Compound	increase of the metabolic clearance rate of glucose (in diabetics) [%]	the body's utilization of blood sugar (in type II diabetics)	improvement of glucose tolerance [1]
O=C(O)CCCCC1CCSS1 (stereo not drawn) [lipoic acid, 6,8-dithio octanoic acid]	50	significantly increase	–
chromium	–	–	up to 50%
